Test results as given in patent US11565005B2, “Dota-hapten compositions for anti-dota/anti-tumor antigen bispecific antibody pretargeted radioimmunotherapy” (MEMORIAL SLOAN KETTERING CANCER CENTER, priority 2017, dated 2023).

Assays:
[1] = Biodistribution of [^225Ac]Proteus-DOTA alone in tumor-free nude mice; format: in vivo; conditions: hapten alone, 1 h p.i.
Excerpt: Carcass radioactivity was not collected during this study.

[2] = Dose-escalation toxicology study of [^225Ac]Proteus-DOTA in healthy nude mice; format: in vivo
Description: The maximum tolerated dose was not reached. Treated animal weights plotted as the percentage of pre-treatment baseline weight. Asterisk (*) indicates mouse required euthanasia or was discovered deceased. Data is presented as mean ±SD.
Toxicology study of [^225Ac]Pr-DOTA in healthy mice. A dose-escalation toxicity study was performed to evaluate any morbidity and histopathological damage attributed to [^225Ac]Proteus-DOTA. […] Unscheduled mortality (mice found dead or found sick and euthanized) were submitted for pathology. […] A total of three unscheduled mortalities occurred: 2/5 from the 0.5 μCi dose group; one on day 36 that was submitted for necropsy because of 20% weight loss-no gross pathologic or histopathologic lesions were observed, and no significant findings were observed on hematology and serum chemistry; and by the time the other mouse was found dead on day 144, necropsy was not possible. In addition, one mouse from group 8 μCi was euthanized after 123 days with a Staphylococcus bacterial infection. The significant findings in this mouse were histiocytic and eosinophilic myocardis, eosinophilic interstitial pneumonia, soft tissue hemorrhages, marked thrombocytopenia, and mild anemia with elevation of reticulocytes. The myocarditis, pnemonia, and mild anemia were related to some findings observed at scheduled sacrifice. Such thrombocytopenia with secondary hemorrhages was not observed in other mice in this study. Serum chemistry was unremarkable.

[3] = n = 3, listed as [^225Ac] Proteus-DOTA

In the case of `O=C([O-])CN1CCN(CC(=O)[O-])CCN(CC(=O)NCCOCCOCCOCCOCCNC(=S)Nc2ccc(CC3CN(CC(=O)[O-])CCN(CC(=O)[O-])CCN(CC(=O)[O-])CCN3CC(=O)[O-])cc2)CCN(CC(=O)[O-])CC1.[225Ac+3].[Lu+3]` (stereo not shown) [[^225Ac]Proteus-DOTA], the Blood uptake ([1]; n = 3) was 0.31±0.54 % ID/g, the Bone uptake ([1]; n = 3) was 0.45 ± 0.79 % ID/g and the Kidneys uptake ([1]; n = 3) was 0.63±0.41 % ID/g. For the same molecule, the “Large Intestine uptake” value ([1]; n = 3) was 0.02 ± 0.02 % ID/g, the Liver uptake ([1]; n = 3) was 0.04±0.06 % ID/g and the Muscle uptake ([1]; n = 3) was 0.98 ± 0.91 % ID/g. For the same molecule, the “Small Intestine uptake” value ([1]; n = 3) was 0.16 ± 0.26 % ID/g, the Spleen uptake ([1]; n = 3) was 0.04 ± 0.06 % ID/g and the Stomach uptake ([1]; n = 3) was 0.24 ± 0.38 % ID/g. For the same molecule, the Blood uptake [1, 3] was 0.31 ± 0.54 % ID/g, the Kidneys uptake [1, 3] was 0.63 ± 0.41 % ID/g and the Liver uptake [1, 3] was 0.01 ± 0.02 % ID/g. The “toxicity (defined as >10% weight loss)” value ([2]; 0.25-8 μCi/mouse, 145 days) was “no toxicity was observed”, the “mice affected by histiocytic and eosinophilic inflammation” value (“mice affected” for short) ([2]; 0.25 μCi) was 0/5 and the “mice affected” value ([2]; 0.5 μCi) was 0/4. The unscheduled mortalities ([2]; 0.5 μCi dose group (day 36 and day 144)) was 2/5, the “mice affected” value ([2]; 1 μCi) was 0/5 and the “mice affected” value ([2]; 2 μCi) was 1/5. The “mice affected” value ([2]; 4 μCi) was 1/5, the “mice affected” value ([2]; 8 Ci group) was 3/5 and the “unscheduled mortalities (euthanized, Staphylococcus bacterial infection)” value ([2]; 8 μCi group, after 123 days) was “one”. For the same molecule, the “organ weights at necropsy” value ([2]; 145 days, varying dose levels) was “No significant group differences”, the “unscheduled mortalities, total” value ([2]; all dose groups, 145 days) was “three” and the “radiation-induced histologic organ damage at necropsy” value ([2]; any dose level, 145 days) was “no radiation-induced histologic organ damage”. For the same molecule, the “effect on serum chemistry” value ([2]; any dose level, n=29) was “No effect”, the “overall toxicity, acute or chronic radiation damage to normal tissues” value ([2]; doses as high as 8 μCi (296 kBq)/mouse) was “nontoxic” and the “decrease of red blood cells mass” value ([2]; highest dose group (8 μCi)) was roughly 10%. For the same molecule, the maximum tolerated dose ([2]; single i.v. doses 0.25-8 μCi/mouse) was “not reached”.
